From patent publication US10053447B2, “Fluorescent compounds” (Pierce Biotechnology, Inc, priority 2010, dated 2018)

How the values were obtained:
[1] = Spectral properties of the dyes compared with commercially available dyes; type: physicochemical; settings: reactive ester form of the dye
[2] = tested on: IMR90 cells; test: Direct fluorescence labeling of cell surface proteins; type: cell-based, human; settings: 6 μm, 3 μm, 1.5 μm, and 0.75 μm as printed; 30 min
Description: The inventive compounds and commercial dyes were evaluated in direct fluorescence labeling of cell surface proteins using the following protocol. DyLight 549-NHS, 550 Compound 1-NHS, and Whole Cell Stain Orange (Thermo Fisher Scientific) were reconstituted in DMF and diluted to 6 μM in Dulbecco's PBS (DPBS). A total of four 1:1 serial dilutions of the dyes were prepared in DPBS. Frozen IMR90 cells (human lung embryonic fibroblast) on a plate were thawed for 1 h at 37° C. The cell plates were washed two times with DPBS and incubated with dye dilutions for 30 min at room temperature protected from light. The cell plates were then washed three times with DPBS. The cell plates were incubated with 100 μl/well of 1 μg/ml Hoechst dye in DPBS. The cell plates were sealed and imaged using the Thermo Scientific ArrayScan VTI HCS Reader.
The inventive compounds and commercial dye were evaluated in direct fluorescence labeling of cell surface proteins. DyLight 649-NHS, 650 Compound 1-NHS, and Whole Cell Stain Orange (Thermo Fisher Scientific) were reconstituted in DMF and diluted to 6 μM in Dulbecco's PBS (DPBS). A total of four 1:1 serial dilutions of the dyes were prepared in DPBS. Frozen IMR90 cells (human lung embryonic fibroblast) on a plate were thawed for 1 h at 37° C. […] The cell plates were sealed and imaged using the Thermo Scientific ArrayScan VTI HCS Reader.

[3] = target: T1, streptavidin (SA) (Streptomyces avidinii, UniProt P22629); test: Labeling efficiency (degree of labeling, mole dye to mole protein ratio) of streptavidin; settings: SA, NHS ester, 5X molar excess
Description: Inventive and commercial compounds, each as the NHS ester, were conjugated to goat anti-mouse (GAM), goat anti-rabbit (GAR) antibodies, and streptavidin (SA). GAM, GAR, and SA, at 10 mg/ml in phosphate buffered saline (PBS), were dialyzed against 50 mM borate buffer, pH 8.5. The compounds were reconstituted in dimethylformamide (DMF) at 10 mg/ml and combined at 2×, 4×, 5×, 7.5×, or 10× molar excess with GAM, GAR, or SA for 2 h at room temperature to label the antibodies or SA.
The labeled compounds, also termed dyes or labels, were subjected to PDDR to remove the unlabeled (free) compound; 100 μl of the packed resin was used per mg of protein purified. The purified antibody-labeled dyes were then diluted 1:50 in PBS and scanned for absorbance from 700 nm to 230 nm to determine the protein concentration, and to determine the mole dye to mole protein ratio. Each conjugate was diluted 1:10 in 50% glycerol and heated in the presence of 10 mM dithiothreitol (DTT) for 5 min at 95° C., then separated by electrophoresis on polyacrylamide gels in the presence of sodium dodecyl sulfate (SDS-PAGE). The gels were scanned using the Typhoon 9400 Imager to verify removal of the unconjugated compound. Labeling efficiency was compared, with results showing degree of labeling below.
Compounds 1, 2, and 3, each as the NHS ester, and DyLight 649-NHS were conjugated to goat anti-mouse (GAM) and goat anti-rabbit (GAR) antibodies. GAM and GAR, at a concentration of 10 mg/ml in phosphate buffered saline (PBS), were dialyzed against 50 mM borate buffer, pH 8.5. The compounds were reconstituted in dimethylformamide (DMF) at 10 mg/ml. To label the antibodies, the compounds were added at 2.5× molar excess and 5× molar excess for 2 h at room temperature. Streptavidin (SA) was reconstituted in PBS buffer, pH 7.2, and 50 mM borate buffer, pH 8.5, and labeled with 2.5× molar excess and 4× molar excess of the compound.
The antibody-labeled compounds, also termed dyes or labels, were subjected to gel filtration chromatography (15 cm×0.8 cm columns) or to the PDDR to remove the unlabeled (free) compound; 100 μl of the packed resin was used per mg of protein purified. The purified antibody-labeled dyes were then diluted 1:100 in PBS and scanned for absorbance from 700 nm to 230 nm to determine the protein concentration, and to determine the mole dye to mole protein ratio. Each conjugate was diluted 1:10 in 50% glycerol and heated in the presence of 10 mM dithiothreitol (DTT) for 5 min at 95° C., then separated by electrophoresis on polyacrylamide gels in the presence of sodium dodecyl sulfate (SDS-PAGE). The gels were scanned using the Typhoon 9400 Imager to verify removal of the unconjugated compound. Labeling efficiency was compared using labeling of the compounds to GAM antibody at a 2.5× molar excess of compound, with results shown below.
Labeling efficiency was also compared using labeling of the dyes to streptavidin (SA) at either a 2.5 fold or a 4 fold molar excess of the dye, with SA in PBS, pH 7.2, and borate buffer, pH 8.5.
650 Compound 1 (isomer 2)-TFP, 650 Compound 1 (isomer 1)-TFP, 650 Compound 1 (isomer 2)-TFP, 650 Compound 1-NHS, and DyLight 649-NHS were conjugated to GAM, GAR, and SA. GAM and GAR, at a concentration of 10 mg/ml in phosphate buffered saline (PBS), were dialyzed against 50 mM borate buffer, pH 8.5. The compounds were reconstituted in dimethylformamide (DMF) at 10 mg/ml and used to label antibodies at 5× molar excess of compound for two hours at room temperature to label the antibodies. SA was reconstituted in 50 mM borate buffer, pH 8.5, and combined with 4× molar excess to label the SA.
The antibody-conjugated and SA-conjugated compounds, also termed dyes or labels, were subjected to the PDDR to remove the unlabeled (free) compound. The purified antibodies and SA were then diluted 1:25 in PBS and scanned for absorbance from 700 nm to 230 nm to determine the protein concentration, and to determine the mole dye to mole protein ratio. […]

[4] = target: T1, streptavidin (SA); test: as above; settings: NHS ester, 3X molar excess

| Emission (Em) [1] [nm] | Excitation (Ex) [1] [nm] | ε [1] | Compound | Performance in direct fluorescence labeling of cell surface proteins [2] | D/P 5X [3] | D/P 3X [4] |
| --- | --- | --- | --- | --- | --- | --- |
| 572 | 557 | 142,000 M−1cm−1 | COCCN1/C(=C/C=C/C2=[N+](CCCCCC(=O)ON3C(=O)CCC3=O)c3ccc(S(=O)(=O)[O-])cc3C2(C)CCCS(=O)(=O)O)C(C)(CCCS(=O)(=O)O)c2cc(S(=O)(=O)O)ccc21 (centres unmarked) [550 Compound 1-NHS] | performed equivalently as DyLight 549-NHS |  |  |
|  |  |  | DyLight 750-SA: DyLight 750 conjugated to streptavidin (SA) [reference compound] |  | 4.0 | 2.5 |
|  |  |  | Alexa 750-SA: Alexa 750 conjugated to streptavidin (SA) [reference compound] |  | 4.7 | 3.3 |
